Test system: Palmitoyl CoA oxidation in rat heart mitochondria
Assay: Mitochondrial assay: Palmitoyl CoA oxidation
Type: biochemical
Conditions: for IC50: 16 microM 1-C14 palmitoyl CoA, 15 min at 30° C., read-out: Effect of Compounds of the Invention on Palmitoyl CoA Oxidation (IC50)
Description: Rat heart mitochondria were isolated by the method of Nedergard and Cannon (Methods in Enzymol. 55, 3, 1979).
Palmitoyl CoA oxidation—The Palmitoyl CoA oxidation was carried out in a total volume of 100 micro liters containing the following agents: 110 mM KCl, 33 mM Tris buffer at pH 8, 2 mM KPi, 2 mM MgCl2, 0.1 mM EDTA, 14.7 microM defatted BSA, 0.5 mM malic acid, 13 mM carnitine, 1 mM ADP, 52 micrograms of mitochondrial protein, and 16 microM 1-C14 palmitoyl CoA (Sp. Activity 60 mCi/mmole; 20 microCi/ml, using 5 microliters per assay). The compounds of this invention were added in a DMSO solution at the following concentrations: 100 micro molar, 30 micro molar, and 3 micro molar. In each assay, a DMSO control was used. After 15 min at 30° C., the enzymatic reaction was centrifuged (20,000 g for 1 min), and 70 microliters of the supernatant was added to an activated reverse phase silicic acid column (approximately 0.5 ml of silicic acid). The column was eluted with 2 ml of water, and 0.5 ml of the eluent was used for scintillation counting to determine the amount of C^14 trapped as C^14 bicarbonate ion.

| Compound | IC50 | Effect on Palmitoyl CoA Oxidation, % at 30 uM (at 30 uM) |
| --- | --- | --- |
| 3-{(2R)-2-methyl-4-[(5-phenylisoxazol-3-yl)methyl]piperazinyl}(2S)-1-(2-methylbenzothiazol-5-yloxy)propan-2-ol | 440 nM | – |
| (2R)-1-[4-({5-[4-(tert-butyl)phenyl](1,3,4-oxadiazol-2-yl)}methyl)piperazinyl]-3-(2-methylbenzothiazol-5-yloxy)propan-2-ol | 1100 nM | – |
| (2R)-1-[(3S)-3-methyl-4-({5-[4-(trifluoromethyl)phenyl](1,2,4-oxadiazol-3-yl)}methyl)piperazinyl]-3-(2-methylbenzothiazol-5-yloxy)propan-2-ol | 4700 nM | – |
| (2R)-1-{(2S)-2-methyl-4-[(5-(2-naphthyl)(1,3,4-oxadiazol-2-yl))methyl]piperazinyl}-3-(2-methylbenzothiazol-5-yloxy)propan-2-ol | 1150 nM | – |
| (2R)-3-{(3S)-3-methyl-4-[(5-(3,4-dichlorophenyl)isoxazol-3-yl)methyl]piperazinyl}-1-(2-methylbenzothiazol-5-yloxy)propan-2-ol | 250 nM | – |
| (2R)-1-(4-{[3-(2,4-dichlorophenyl)(1,2,4-oxadiazol-5-yl)]methyl}piperazinyl)-3-(2-methylbenzothiazol-5-yloxy)propan-2-ol | 1140 nM | – |
| (2R)-3-{(2S)-2-methyl-4-[(3-phenylisoxazol-5-yl)methyl]piperazinyl}-1-(2-methylbenzothiazol-5-yloxy)propan-2-ol | 410 nM | – |
| (2R)-3-{(3S)-3-methyl-4-[(5-(4-chlorophenyl)isoxazol-3-yl)methyl]piperazinyl}-1-(2-methylbenzothiazol-5-yloxy)propan-2-ol | 330 nM | – |
| (2R)-1-(4-{[5-(2-chlorophenyl)(1,2,4-oxadiazol-3-yl)]methyl}piperazinyl)-3-(2-methylbenzothiazol-5-yloxy)propan-2-ol | 1140 nM | – |
| (2R)-1-(4-{[5-(2-chlorophenyl)(1,3,4-oxadiazol-2-yl)]methyl}piperazinyl)-3-(2-methylbenzothiazol-5-yloxy)propan-2-ol | 2100 nM | – |
| (2R)-3-(2-methylbenzothiazol-5-yloxy)-1-{4-[(5-phenyl(1,3,4-oxadiazol-2-yl))methyl]piperazinyl}propan-2-ol | 1100 nM | – |
| (2R)-1-{(2S)-2-methyl-4-[(5-phenyl(1,3,4-oxadiazol-2-yl))methyl]piperazinyl}-3-(2-methylbenzothiazol-5-yloxy)propan-2-ol | 1570 nM | – |
| (2R)-3-(2-methylbenzothiazol-5-yloxy)-1-(4-{[5-(2-methylphenyl)(1,2,4-oxadiazol-3-yl)]methyl}piperazinyl)propan-2-ol | 1170 nM | – |
| (2R)-3-{(2S)-2-methyl-4-[(5-phenylbenzoxazol-2-yl)methyl]piperazinyl}-1-(2-methylbenzothiazol-5-yloxy)propan-2-ol | 2100 nM | – |
| (2R)-3-(2-methylbenzothiazol-5-yloxy)-1-(4-{[5-(4-methylphenyl)(1,3,4-oxadiazol-2-yl)]methyl}piperazinyl)propan-2-ol | 10700 nM | – |
| (2R)-3-((3S)-3-methyl-4-{[5-(4-phenylphenyl)isoxazol-3-yl]methyl}piperazinyl)-1-(2-methylbenzothiazol-5-yloxy)propan-2-ol | 970 nM | – |
| (2R)-1-[(3S)-3-methyl-4-({2-[4-(trifluoromethyl)phenyl](1,3-thiazol-4-yl)}methyl)piperazinyl]-3-(2-methylbenzothiazol-5-yloxy)propan-2-ol | 210 nM | – |
| (2R)-1-{(3S)-3-methyl-4-[(2-phenyl(1,3-thiazol-4-yl))methyl]piperazinyl}-3-(2-methylbenzothiazol-5-yloxy)propan-2-ol | 340 nM | – |
| (2R)-1-((2S)-2-methyl-4-{[5-(4-phenylphenyl)(1,3,4-oxadiazol-2-yl)]methyl}piperazinyl)-3-(2-methylbenzothiazol-5-yloxy)propan-2-ol | 1180 nM | – |
| (2R)-3-[(2S)-2-methyl-4-({5-[4-(trifluoromethyl)phenyl](1,2,4-oxadiazol-3-yl)}methyl)piperazinyl]-1-(2-methylbenzothiazol-5-yloxy)propan-2-ol | 250 nM | – |
| (2R)-3-(2-methylbenzothiazol-5-yloxy)-1-[4-({5-[4-(trifluoromethyl)phenyl](1,3,4-oxadiazol-2-yl)}methyl)piperazinyl]propan-2-ol | 4800 nM | – |
| (2R)-3-(2-methylbenzothiazol-5-yloxy)-1-[4-({5-[3-(trifluoromethyl)phenyl](1,2,4-oxadiazol-3-yl)}methyl)piperazinyl]propan-2-ol | – | 58% at 30 uM |

| Compound | IC50 | Effect on Palmitoyl CoA Oxidation, % at 30 uM (at 30 uM) |
| --- | --- | --- |
| (2R)-1-(4-{[5-(4-methoxyphenyl)(1,3,4-oxadiazol-2-yl)]methyl}piperazinyl)-3-(2-methylbenzothiazol-5-yloxy)propan-2-ol | 8900 nM | – |
| (2R)-1-(4-{[3-(2-fluorophenyl)(1,2,4-oxadiazol-5-yl)]methyl}piperazinyl)-3-(2-methylbenzothiazol-5-yloxy)propan-2-ol | 5700 nM | – |
| (2R)-1-((2S)-4-{[5-(4-chlorophenyl)(1,3,4-oxadiazol-2-yl)]methyl}-2-methylpiperazinyl)-3-(2-methylbenzothiazol-5-yloxy)propan-2-ol | 690 nM | – |
| (2R)-1-[(2S)-4-({5-[4-(tert-butyl)phenyl](1,3,4-oxadiazol-2-yl)}methyl)-2-methylpiperazinyl]-3-(2-methylbenzothiazol-5-yloxy)propan-2-ol | 390 nM | – |
| (2R)-1-[(2S)-4-({5-[4-(dimethylamino)phenyl](1,3,4-oxadiazol-2-yl)}methyl)-2-methylpiperazinyl]-3-(2-methylbenzothiazol-5-yloxy)propan-2-ol | 1480 nM | – |
| (2R)-3-(2-methylbenzothiazol-5-yloxy)-1-(4-{[5-(4-phenylphenyl)(1,3,4-oxadiazol-2-yl)]methyl}piperazinyl)propan-2-ol | 990 nM | – |
| (2R)-3-[(2S)-2-methyl-4-({2-[4-(trifluoromethyl)phenyl](1,3-oxazol-5-yl)}methyl)piperazinyl]-1-(2-methylbenzothiazol-5-yloxy)propan-2-ol | 370 nM | – |
| (2R)-3-(2-methylbenzothiazol-5-yloxy)-1-{4-[(2-phenyl(1,3-thiazol-4-yl))methyl]piperazinyl}propan-2-ol | 2700 nM | – |
| (2R)-1-((3S)-4-{[5-(2,4-dichlorophenyl)(1,2,4-oxadiazol-3-yl)]methyl}-3-methylpiperazinyl)-3-(2-methylbenzothiazol-5-yloxy)propan-2-ol | 680 nM | – |
| (2R)-3-[(2S)-2-methyl-4-({5-[2-chlorophenyl]isoxazol-3-yl}methyl)piperazinyl]-1-(2-methylbenzothiazol-5-yloxy)propan-2-ol | 600 nM | – |
| (2R)-3-(2-methylbenzothiazol-5-yloxy)-1-(4-{[3-(2-methylphenyl)(1,2,4-oxadiazol-5-yl)]methyl}piperazinyl)propan-2-ol | 230 nM | – |
| (2R)-3-((2S)-4-{[5-(3,4-dichlorophenyl)isoxazol-3-yl]methyl}-2-methylpiperazinyl)-1-(2-methylbenzothiazol-5-yloxy)propan-2-ol | 730 nM | – |
| (2R)-1-[(2S)-2-methyl-4-({5-[3-(trifluoromethyl)phenyl](1,3,4-oxadiazol-2-yl)}methyl)piperazinyl]-3-(2-methylbenzothiazol-5-yloxy)propan-2-ol | 1050 nM | – |
| (2R)-3-{(3S)-3-methyl-4-[(5-(2-chlorophenyl)isoxazol-3-yl)methyl]piperazinyl}-1-(2-methylbenzothiazol-5-yloxy)propan-2-ol | 60 nM | – |
| (2R)-1-((3S)-4-{[2-(4-chlorophenyl)(1,3-thiazol-4-yl)]methyl}-3-methylpiperazinyl)-3-(2-methylbenzothiazol-5-yloxy)propan-2-ol | 410 nM | – |
| (2R)-3-((2S)-4-{[5-(4-methoxyphenyl)(1,3,4-oxadiazol-2-yl)]methyl}-2-methylpiperazinyl)-1-(2-methylbenzothiazol-5-yloxy)propan-2-ol | 1240 nM | – |
| Cc1nc2cc(OC[C@H](O)CN3CCN(Cc4nc(-c5ccc(Cl)cc5Cl)no4)C[C@@H]3C)ccc2s1 [(2R)-1-((2S)-4-{[3-(2,4-dichlorophenyl)(1,2,4-oxadiazol-5-yl)]methyl}-2-methylpiperazinyl)-3-(2-methylbenzothiazol-5-yloxy)propan-2-ol] | 100 nM | – |
| (2R)-3-((2S)-4-{[5-(2-chlorophenyl)(1,3,4-oxadiazol-2-yl)]methyl}-2-methylpiperazinyl)-1-(2-methylbenzothiazol-5-yloxy)propan-2-ol | 340 nM | – |
| (2R)-1-(4-{[5-(4-chlorophenyl)(1,3,4-oxadiazol-2-yl)]methyl}piperazinyl)-3-(2-methylbenzothiazol-5-yloxy)propan-2-ol | 8500 nM | – |
| Cc1nc2cc(OC[C@H](O)CN3CCN(Cc4nc5cc(-c6ccccc6)ccc5o4)CC3)ccc2s1 [(2R)-3-(2-methylbenzothiazol-5-yloxy)-1-{4-[(5-phenylbenzoxazol-2-yl)methyl]piperazinyl}propan-2-ol] | 3600 nM | – |
| Cc1nc2cc(OC[C@H](O)CN3CCN(Cc4cc(-c5ccc(Cl)cc5)on4)C[C@@H]3C)ccc2s1 [(2R)-3-[(2S)-2-methyl-4-({5-[4-chlorophenyl]isoxazol-3-yl}methyl)piperazinyl]-1-(2-methylbenzothiazol-5-yloxy)propan-2-ol] | 140 nM | – |

— patent US7056924B2, “Substituted heterocyclic compounds” (CV Therapeutics, Inc., priority 2002, dated 2006)
